Assays:
Test in all cases: binding to VI16742 beads (HeLa lysate, SILAC MS)
XTP3TPA (IPI00012197) = target: T1, XTP3TPA (IPI00012197) (Homo sapiens, UniProt Q9H773)
T1 construct: endogenous in cells; host or cells: HeLa S3
T1 sequence (Q9H773 1-170): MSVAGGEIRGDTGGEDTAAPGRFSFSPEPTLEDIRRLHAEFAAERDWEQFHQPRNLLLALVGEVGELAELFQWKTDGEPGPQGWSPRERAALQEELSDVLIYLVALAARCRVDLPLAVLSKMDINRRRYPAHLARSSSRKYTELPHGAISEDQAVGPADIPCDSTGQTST
From the text: (§1) In an alternative implementation of the chemical proteomic approach according to the invention, the broadly-selective pyrido[2,3-d]pyrimidine-based kinase inhibitor VI16742 has been used for affinity capture (FIG. 10a). […] As shown by gene ontology analysis, the corresponding molecular functions were highly over-represented in proteins specifically retained by the inhibitor resin (FIG. 10b).

[1] = target: T2, PKACb (PRKACB, IPI00376119) (Homo sapiens, UniProt P22694)
T2 construct: endogenous in cells; host or cells: HeLa S3
From the text: as §1

DAPK2 (IPI00033388) = target: T3, DAPK2 (IPI00033388) (Homo sapiens, UniProt Q9UIK4)
T3 construct: endogenous in cells; host or cells: HeLa S3
T3 sequence (Q9UIK4 whole entry): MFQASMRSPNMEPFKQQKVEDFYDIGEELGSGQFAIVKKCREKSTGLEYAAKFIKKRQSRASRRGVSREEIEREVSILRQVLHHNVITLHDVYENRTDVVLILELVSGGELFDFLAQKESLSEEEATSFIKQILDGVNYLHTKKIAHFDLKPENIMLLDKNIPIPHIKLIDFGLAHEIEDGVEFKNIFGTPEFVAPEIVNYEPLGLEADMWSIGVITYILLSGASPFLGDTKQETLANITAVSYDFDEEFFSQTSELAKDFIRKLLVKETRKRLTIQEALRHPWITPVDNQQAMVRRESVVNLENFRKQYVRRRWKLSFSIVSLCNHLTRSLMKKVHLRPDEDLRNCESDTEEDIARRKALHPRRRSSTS
From the text: as §1

[2] = target: T4, TAO3 (TAOK3, IPI00410485) (Homo sapiens, UniProt Q9H2K8)
T4 construct: endogenous in cells; host or cells: HeLa S3
T4 sequence (Q9H2K8 1-898): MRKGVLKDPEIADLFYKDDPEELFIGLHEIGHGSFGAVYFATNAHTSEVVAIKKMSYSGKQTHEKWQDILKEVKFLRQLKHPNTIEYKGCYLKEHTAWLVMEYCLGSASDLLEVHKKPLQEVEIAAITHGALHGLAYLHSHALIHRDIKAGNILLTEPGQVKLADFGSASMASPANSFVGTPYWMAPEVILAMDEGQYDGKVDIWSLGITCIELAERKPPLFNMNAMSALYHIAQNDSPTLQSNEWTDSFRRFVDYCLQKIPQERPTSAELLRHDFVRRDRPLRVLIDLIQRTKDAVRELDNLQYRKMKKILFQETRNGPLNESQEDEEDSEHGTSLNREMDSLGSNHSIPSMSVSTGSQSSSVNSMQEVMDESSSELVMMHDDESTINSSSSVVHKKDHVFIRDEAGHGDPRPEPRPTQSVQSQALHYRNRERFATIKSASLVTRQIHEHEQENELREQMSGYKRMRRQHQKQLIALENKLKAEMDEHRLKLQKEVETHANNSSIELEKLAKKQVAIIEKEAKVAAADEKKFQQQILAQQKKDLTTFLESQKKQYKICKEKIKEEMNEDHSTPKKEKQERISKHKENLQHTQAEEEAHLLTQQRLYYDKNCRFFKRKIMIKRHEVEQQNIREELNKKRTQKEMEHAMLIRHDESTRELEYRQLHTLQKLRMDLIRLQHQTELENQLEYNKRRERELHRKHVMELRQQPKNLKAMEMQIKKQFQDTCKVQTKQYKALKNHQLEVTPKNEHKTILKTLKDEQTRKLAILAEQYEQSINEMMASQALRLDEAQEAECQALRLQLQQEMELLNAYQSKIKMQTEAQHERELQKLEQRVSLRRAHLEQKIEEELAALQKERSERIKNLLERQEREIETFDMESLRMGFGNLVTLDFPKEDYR
From the text: as §1

CDK4 (IPI00007811) = target: T5, CDK4 (IPI00007811) (Homo sapiens, UniProt P11802)
T5 construct: endogenous in cells; host or cells: HeLa S3
T5 sequence (P11802 whole entry): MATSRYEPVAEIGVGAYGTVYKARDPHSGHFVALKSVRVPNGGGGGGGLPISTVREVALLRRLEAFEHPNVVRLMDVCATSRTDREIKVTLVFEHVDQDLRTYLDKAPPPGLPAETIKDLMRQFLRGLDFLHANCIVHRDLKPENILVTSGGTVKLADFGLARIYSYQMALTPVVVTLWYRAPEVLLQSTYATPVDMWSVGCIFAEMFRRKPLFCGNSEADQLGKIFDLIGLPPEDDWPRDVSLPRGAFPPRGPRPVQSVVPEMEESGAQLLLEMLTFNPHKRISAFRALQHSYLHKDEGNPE
From the text: as §1

[3] = target: T6, TAO1 (TAOK1, IPI00002232) (Homo sapiens, UniProt Q7L7X3)
T6 construct: endogenous in cells; host or cells: HeLa S3
T6 sequence (Q7L7X3 1-1001): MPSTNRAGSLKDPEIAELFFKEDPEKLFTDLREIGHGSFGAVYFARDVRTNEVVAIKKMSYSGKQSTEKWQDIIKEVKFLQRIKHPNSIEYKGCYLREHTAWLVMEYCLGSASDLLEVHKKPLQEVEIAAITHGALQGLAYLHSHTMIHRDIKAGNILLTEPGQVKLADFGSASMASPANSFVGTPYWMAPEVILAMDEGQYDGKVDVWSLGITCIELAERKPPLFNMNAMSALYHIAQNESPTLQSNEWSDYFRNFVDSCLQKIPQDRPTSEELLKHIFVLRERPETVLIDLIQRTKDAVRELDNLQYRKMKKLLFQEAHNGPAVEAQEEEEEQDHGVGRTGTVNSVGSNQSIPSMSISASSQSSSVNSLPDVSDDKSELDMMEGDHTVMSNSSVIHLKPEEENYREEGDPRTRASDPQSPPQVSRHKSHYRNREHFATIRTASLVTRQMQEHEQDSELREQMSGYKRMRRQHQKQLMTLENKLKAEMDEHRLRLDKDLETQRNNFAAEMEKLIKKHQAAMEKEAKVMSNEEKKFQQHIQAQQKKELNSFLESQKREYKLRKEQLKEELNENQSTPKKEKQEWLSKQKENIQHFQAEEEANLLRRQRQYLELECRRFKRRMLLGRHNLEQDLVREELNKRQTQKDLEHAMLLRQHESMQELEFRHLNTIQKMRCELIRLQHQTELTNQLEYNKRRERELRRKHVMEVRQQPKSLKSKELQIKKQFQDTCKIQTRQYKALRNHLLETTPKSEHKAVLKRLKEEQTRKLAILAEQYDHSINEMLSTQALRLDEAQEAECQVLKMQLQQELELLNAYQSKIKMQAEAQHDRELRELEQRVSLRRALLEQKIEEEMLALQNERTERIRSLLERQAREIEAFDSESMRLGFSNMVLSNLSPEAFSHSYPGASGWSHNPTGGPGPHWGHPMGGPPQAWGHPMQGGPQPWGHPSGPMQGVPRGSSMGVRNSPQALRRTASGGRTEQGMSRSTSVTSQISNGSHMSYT
From the text: as §1

[4] = control beads vs first incubation

SMILES: CC(C)n1c(=O)ccc2cnc(Nc3ccc(OCCN)cc3)nc21 [V16742]
- r (3 MG/1 MG LYSATE) (XTP3TPA (IPI00012197); 3 mg vs 1 mg lysate): 3.39
- r (5 h/2.5 h INC. TIME) (XTP3TPA (IPI00012197); 5 h vs 2.5 h incubation time): 1.04
- rAVERAGE (CTRL/1 INC) (XTP3TPA (IPI00012197); [4]): 0.08
- Ki (XTP3TPA (IPI00012197); immobilized VI16742): 159 µM
- rAVERAGE (2 INC/1 INC) (XTP3TPA (IPI00012197); second vs first incubation): 0.75
- rAVERAGE (CTRL/1 INC) [1, 4]: 0.01
- Ki ([1]; immobilized VI16742): 390 µM
- rAVERAGE (2 INC/1 INC) ([1]; second vs first incubation): 0.88
- rAVERAGE (CTRL/1 INC) (DAPK2 (IPI00033388); [4]): 0.11
- Ki (DAPK2 (IPI00033388); immobilized VI16742): 171 µM
- rAVERAGE (2 INC/1 INC) (DAPK2 (IPI00033388); second vs first incubation): 0.77
- r (3 MG/1 MG LYSATE) ([2]; 3 mg vs 1 mg lysate): 2.95
- rAVERAGE (CTRL/1 INC) [2, 4]: 0.09
- Ki ([2]; immobilized VI16742): 116 µM
- rAVERAGE (2 INC/1 INC) ([2]; second vs first incubation): 0.69
- r (3 MG/1 MG LYSATE) (CDK4 (IPI00007811); 3 mg vs 1 mg lysate): 1.77
- r (5 h/2.5 h INC. TIME) (CDK4 (IPI00007811); 5 h vs 2.5 h incubation time): 1.03
- rAVERAGE (CTRL/1 INC) (CDK4 (IPI00007811); [4]): 0.07
- Ki (CDK4 (IPI00007811); immobilized VI16742): 511 µM
- rAVERAGE (2 INC/1 INC) (CDK4 (IPI00007811); second vs first incubation): 0.91
- r (3 MG/1 MG LYSATE) ([3]; 3 mg vs 1 mg lysate): 2.64
- r (5 h/2.5 h INC. TIME) ([3]; 5 h vs 2.5 h incubation time): 1.02
- rAVERAGE (CTRL/1 INC) [3, 4]: 0.06
- Ki ([3]; immobilized VI16742): 162 µM
- rAVERAGE (2 INC/1 INC) ([3]; second vs first incubation): 0.76

Reference: patent US8959984B2, “Proteome-wide quantification of small molecule binding to cellular target proteins” (priority 2007, dated 2015)
